Measurements taken from PubChem BioAssay AID1259407 (Chemical Carcinogenesis Research Information System (CCRIS), 2018).
Activity calls are given as the source filed them. The rule behind the calls is not given here.

System: CCRIS mutagenicity, Ames/micronucleus/aberration tests
Test: CCRIS mutagenicity studies
[1] = Test System: AMES SALMONELLA TYPHIMURIUM, Strain/Indicator: TA98, Metabolic Activation: NONE, Method: STANDARD PLATE
[2] = Test System: AMES SALMONELLA TYPHIMURIUM, Strain/Indicator: TA100, Metabolic Activation: NONE, Method: STANDARD PLATE
[3] = Test System: AMES SALMONELLA TYPHIMURIUM, Strain/Indicator: TA100, Metabolic Activation: RAT, LIVER, S-9, AROCLOR 1254, Method: STANDARD PLATE
[4] = Test System: AMES SALMONELLA TYPHIMURIUM, Strain/Indicator: TA1535, Metabolic Activation: NONE, Method: STANDARD PLATE
[5] = Test System: AMES SALMONELLA TYPHIMURIUM, Strain/Indicator: TA98, Metabolic Activation: NONE, Method: PREINCUBATION
[6] = Test System: AMES SALMONELLA TYPHIMURIUM, Strain/Indicator: TA98, Metabolic Activation: NONE
[7] = Test System: AMES SALMONELLA TYPHIMURIUM, Strain/Indicator: TA98, Metabolic Activation: S-9
[8] = Test System: AMES SALMONELLA TYPHIMURIUM, Strain/Indicator: TA100, Metabolic Activation: NONE
[9] = Test System: AMES SALMONELLA TYPHIMURIUM, Strain/Indicator: TA100, Metabolic Activation: S-9

What does the source list for ClCCCCl?
mutagenic call (Test System: AMES SALMONELLA TYPHIMURIUM, Strain/Indicator: GSTT1, Metabolic Activation: RAT, LIVER, S-9, AROCLOR 1254, Method: STANDARD PLATE): inactive; negative; mutagenic call (Test System: AMES SALMONELLA TYPHIMURIUM, Strain/Indicator: RSJ100, Metabolic Activation: NONE, Method: STANDARD PLATE): inactive; negative; mutagenic call [1]: inactive; negative; mutagenic call (Test System: AMES SALMONELLA TYPHIMURIUM, Strain/Indicator: TA98, Metabolic Activation: RAT, LIVER, S-9, AROCLOR 1254, Method: STANDARD PLATE): inactive; negative; mutagenic call [2]: inactive; negative; mutagenic call [3]: inactive; negative; mutagenic call (Test System: AMES SALMONELLA TYPHIMURIUM, Strain/Indicator: TA104, Metabolic Activation: NONE, Method: STANDARD PLATE): inactive; negative; mutagenic call (Test System: AMES SALMONELLA TYPHIMURIUM, Strain/Indicator: TA104, Metabolic Activation: RAT, LIVER, S-9, AROCLOR 1254, Method: STANDARD PLATE): inactive; negative; mutagenic call [4]: inactive; negative; mutagenic call (Test System: AMES SALMONELLA TYPHIMURIUM, Strain/Indicator: TA1535, Metabolic Activation: RAT, LIVER, S-9, AROCLOR 1254, Method: STANDARD PLATE): inactive; negative

How did the mutagenic call [2] turn out when O=C(ON(OCc1ccccc1)C(=O)c1ccccc1)c1ccc([N+](=O)[O-])cc1 was run?
The mutagenic call was “active; positive”.

And the mutagenic call (Test System: AMES SALMONELLA TYPHIMURIUM, Strain/Indicator: TA100, Metabolic Activation: RAT, S-9, AROCLOR, Method: STANDARD PLATE)?
The mutagenic call was “active; positive”.

How did the mutagenic call [1] turn out when OC(Nc1snc2ccccc12)C(Cl)(Cl)Cl (centres undefined) was run?
The mutagenic call was “inactive; negative”.

And the mutagenic call (Test System: AMES SALMONELLA TYPHIMURIUM, Strain/Indicator: TA98, Metabolic Activation: S-9, Method: STANDARD PLATE)?
The mutagenic call was “inactive; negative”.

And the mutagenic call [2]?
Its mutagenic call is “inactive; negative”.

And the mutagenic call (Test System: AMES SALMONELLA TYPHIMURIUM, Strain/Indicator: TA100, Metabolic Activation: S-9, Method: STANDARD PLATE)?
Its mutagenic call is “inactive; negative”.

What about the mutagenic call [4] of the same compound?
Its mutagenic call is “inactive; negative”.

What about the mutagenic call (Test System: AMES SALMONELLA TYPHIMURIUM, Strain/Indicator: TA1535, Metabolic Activation: S-9, Method: STANDARD PLATE) of the same compound?
Its mutagenic call is “inactive; negative”.

What about the mutagenic call (Test System: AMES SALMONELLA TYPHIMURIUM, Strain/Indicator: TA1537, Metabolic Activation: NONE, Method: STANDARD PLATE) of the same compound?
Its mutagenic call is “inactive; negative”.

And the mutagenic call (Test System: AMES SALMONELLA TYPHIMURIUM, Strain/Indicator: TA1537, Metabolic Activation: S-9, Method: STANDARD PLATE)?
The mutagenic call was “inactive; negative”.

For C1=CC23CCCC2(C=C1)O3 (centres undefined), which mutagenic call [1] is on record?
The mutagenic call was “inactive; negative”.

And the mutagenic call [2]?
Its mutagenic call is “active; positive”.

And the mutagenic call (Test System: AMES SALMONELLA TYPHIMURIUM, Strain/Indicator: TM677/8-AZAGUANINE, Metabolic Activation: NONE, Method: STANDARD PLATE)?
Its mutagenic call is “active; positive”.

For Cc1ccc(NC(=O)c2csc([N+](=O)[O-])c2)cc1, which mutagenic call [1] is on record?
Its mutagenic call is “active; positive”.

What about the mutagenic call [2] of the same compound?
The mutagenic call was “active; positive”.

For N[C@@H](CSC(F)(F)C(F)(F)C(F)F)C(=O)O, which mutagenic call (Test System: AMES SALMONELLA TYPHIMURIUM, Strain/Indicator: TA100, Metabolic Activation: RAT, KIDNEY, S-9, AROCLOR 1254, Method: STANDARD PLATE) is on record?
Its mutagenic call is “inactive; negative”.

For O=C(Cl)Cc1ccccc1, which mutagenic call [5] is on record?
The mutagenic call was “active; positive”.

And the mutagenic call (Test System: AMES SALMONELLA TYPHIMURIUM, Strain/Indicator: TA98, Metabolic Activation: RAT LIVER S-9, PCB, Method: PREINCUBATION)?
Its mutagenic call is “active; positive”.

What about the mutagenic call (Test System: AMES SALMONELLA TYPHIMURIUM, Strain/Indicator: TA100, Metabolic Activation: NONE, Method: PREINCUBATION) of the same compound?
The mutagenic call was “active; positive”.

And the mutagenic call (Test System: AMES SALMONELLA TYPHIMURIUM, Strain/Indicator: TA100, Metabolic Activation: RAT LIVER S-9, PCB, Method: PREINCUBATION)?
Its mutagenic call is “active; positive”.

And the mutagenic call (Test System: AMES SALMONELLA TYPHIMURIUM, Strain/Indicator: TA104, Metabolic Activation: NONE, Method: PREINCUBATION)?
Its mutagenic call is “active; positive”.

And the mutagenic call (Test System: AMES SALMONELLA TYPHIMURIUM, Strain/Indicator: TA104, Metabolic Activation: RAT LIVER S-9, PCB, Method: PREINCUBATION)?
Its mutagenic call is “active; positive”.

And the mutagenic call (Test System: E.COLI, Strain/Indicator: WP2 UVRA, Metabolic Activation: NONE, Method: PREINCUBATION)?
The mutagenic call was “active; positive”.

What about the mutagenic call (Test System: E.COLI, Strain/Indicator: WP2 UVRA, Metabolic Activation: RAT LIVER S-9, PCB, Method: PREINCUBATION) of the same compound?
Its mutagenic call is “active; positive”.

Cc1cnc2ccc3c(nc(NO)n3C)c2n1 was tested. Which mutagenic call [1] did it give?
The mutagenic call was “active; positive”.

Which results are given for CCC(=O)N(O)c1ccc(-c2ccccc2)cc1?
mutagenic call [5]: inactive; negative; mutagenic call (Test System: AMES SALMONELLA TYPHIMURIUM, Strain/Indicator: TA98, Metabolic Activation: RAT, LIVER, CYTOSOL, Method: PREINCUBATION): inactive; negative; mutagenic call (Test System: AMES SALMONELLA TYPHIMURIUM, Strain/Indicator: TA98, Metabolic Activation: RAT, LIVER, MICROSOMES, Method: PREINCUBATION): active; positive

With O=c1c(=O)c2cc3ccccc3c3ccc4cccc1c4c23 as the compound, how does the mutagenic call [3] read?
The mutagenic call was “active; positive”.

[O-][n+]1c2ccccc2c2ccc3cccc4ccc1c2c34 was tested. Which mutagenic call [6] did it give?
The mutagenic call was “inactive; negative”.

What about the mutagenic call [7] of the same compound?
The mutagenic call was “active; positive”.

What about the mutagenic call [8] of the same compound?
Its mutagenic call is “inactive; negative”.

And the mutagenic call [9]?
Its mutagenic call is “active; positive”.

For c1ccc2c(c1)-c1ccccc1C1OC21 (centres undefined), which mutagenic call [1] is on record?
The mutagenic call was “active; positive”.

What does the source list for O=C1OC(O)C(Cl)=C1Cl (centres undefined)?
mutagenic call [2]: active; positive; mutagenic call (Test System: UDS RAT HEPATOCYTES, Strain/Indicator: THYMIDINE INCORPORATION, Metabolic Activation: NONE, Method: AUTORADIOGRAPHY): active; positive

For O=[N+]([O-])c1ccc(/C=N\O)o1, which mutagenic call (Test System: E. COLI, Strain/Indicator: WP2 UVRA, Metabolic Activation: NONE, Method: SPOT) is on record?
The mutagenic call was “active; positive”.

What about the mutagenic call (Test System: E. COLI, Strain/Indicator: WP2 UVRA, Metabolic Activation: NONE, Method: STANDARD PLATE) of the same compound?
Its mutagenic call is “active; positive”.

How did the mutagenic call (Test System: AMES SALMONELLA TYPHIMURIUM, Strain/Indicator: TA98, Metabolic Activation: HAMSTER, LIVER, S-9, AROCLOR 1254 (10%), Method: STANDARD PLATE) turn out when ClC/C=C/CCl was run?
The mutagenic call was “active; positive”.

What about the mutagenic call [1] of the same compound?
Its mutagenic call is “active; positive”.

And the mutagenic call (Test System: AMES SALMONELLA TYPHIMURIUM, Strain/Indicator: TA98, Metabolic Activation: RAT, LIVER, S-9, AROCLOR 1254 (10%), Method: STANDARD PLATE)?
The mutagenic call was “active; positive”.

And the mutagenic call (Test System: AMES SALMONELLA TYPHIMURIUM, Strain/Indicator: TA100, Metabolic Activation: HAMSTER, LIVER, S-9, AROCLOR 1254 (10%), Method: STANDARD PLATE)?
The mutagenic call was “active; positive”.

What about the mutagenic call [2] of the same compound?
Its mutagenic call is “active; positive”.

What about the mutagenic call (Test System: AMES SALMONELLA TYPHIMURIUM, Strain/Indicator: TA100, Metabolic Activation: RAT, LIVER, S-9, AROCLOR 1254 (10%), Method: STANDARD PLATE) of the same compound?
Its mutagenic call is “active; positive”.

What about the mutagenic call (Test System: MOUSE LYMPHOMA, Strain/Indicator: L5178Y (TK+/TK-), Metabolic Activation: NONE, Method: SUSPENSION/PLATE) of the same compound?
Its mutagenic call is “active; positive. reevaluation of results: inconclusive”.

What about the mutagenic call (Test System: MOUSE LYMPHOMA, Strain/Indicator: L5178Y (TK+/TK-), Metabolic Activation: RAT, LIVER, S-9, AROCLOR 1254, Method: SUSPENSION/PLATE) of the same compound?
The mutagenic call was “active; positive. reevaluation of results: positive”.

What does the source list for CC(=O)OCC(=O)[C@@]1(OC(C)=O)CC[C@H]2[C@@H]3C[C@@H](F)C4=CC(=O)C(Br)=C[C@]4(C)[C@@]3(F)[C@@H](O)C[C@@]21C?
mutagenic call [6]: inactive; negative; mutagenic call [7]: inactive; negative; mutagenic call [8]: inactive; negative; mutagenic call [9]: inactive; negative; mutagenic call (Test System: AMES SALMONELLA TYPHIMURIUM, Strain/Indicator: TA1535, Metabolic Activation: NONE): inactive; negative; mutagenic call (Test System: AMES SALMONELLA TYPHIMURIUM, Strain/Indicator: TA1535, Metabolic Activation: S-9): inactive; negative; mutagenic call (Test System: AMES SALMONELLA TYPHIMURIUM, Strain/Indicator: TA1537, Metabolic Activation: NONE): inactive; negative; mutagenic call (Test System: AMES SALMONELLA TYPHIMURIUM, Strain/Indicator: TA1537, Metabolic Activation: S-9): inactive; negative; mutagenic call (Test System: AMES SALMONELLA TYPHIMURIUM, Strain/Indicator: TA1538, Metabolic Activation: NONE): inactive; negative; mutagenic call (Test System: E. COLI, Strain/Indicator: WP2, Metabolic Activation: NONE): inactive; negative; mutagenic call (Test System: E. COLI, Strain/Indicator: WP2, Metabolic Activation: S-9): inactive; negative; mutagenic call (Test System: E. COLI, Strain/Indicator: WP2 UVRA, Metabolic Activation: NONE): inactive; negative; mutagenic call (Test System: E. COLI, Strain/Indicator: WP2 UVRA, Metabolic Activation: S-9): inactive; negative
